Assay results published in ChEMBL document CHEMBL1201862, “PubChem BioAssay data set” (2004).
Active and inactive are the calls of the source. Unless noted, the rule behind the calls is not given here.

Experiments:
[1] = biological target: Melanin-concentrating hormone receptor 1 (Homo sapiens, UniProt Q99705); assay: Late-stage fluorescence-based counterscreen for antagonists of the G-protein coupled receptor 7 (GPR7): cell-based dose response assay to identify antagonists of the melanin-concentrating hormone receptor 1 (MCHR1) Set 5.; type: functional
[2] = biological target: Neuropeptides B/W receptor type 1 (Homo sapiens, UniProt P48145); assay: GPR7 antagonist potency, late-stage follow-up, cell-based, fluorescence, dose response, set 5 (AID 588566); type: functional
[3] = biological target: T1, Protein disulfide-isomerase (Homo sapiens, UniProt P07237); assay: PDI inhibitors, insulin aggregation turbidity, dose response, biochemical, absorbance, cherry-picked samples (AID 602350); type: functional
[4] = biological target: T1, Protein disulfide-isomerase; assay: PDI inhibitors, insulin turbidity readout, dose response, biochemical, absorbance, cherry-picked samples, set 2 (AID 624274); type: functional
[5] = biological target: Botulinum neurotoxin type F (Clostridium botulinum, UniProt P30996); assay: High-throughput multiplex microsphere dose response for inhibitors of toxin protease, specifically Botulinum neurotoxin light chain F protease, compounds from Cherry Pick 02.; type: functional; conditions: read-out: EC50_MICROM
[6] = biological target: Lethal factor (Bacillus anthracis, UniProt P15917); assay: High-throughput multiplex microsphere dose response for inhibitors of toxin protease, specifically Lethal Factor protease, compounds from Cherry Pick 02.; type: functional; conditions: read-out: EC50_MICROM
[7] = biological target: Botulinum neurotoxin type A (Clostridium botulinum (strain Hall / ATCC 3502 / NCTC 13319 / Type A), UniProt P0DPI1); assay: High-throughput multiplex microsphere dose response for inhibitors of toxin protease, specifically Botulinum neurotoxin light chain A protease, compounds from Cherry Pick 02.; type: functional; conditions: read-out: EC50_MICROM
[8] = inhibitors of intracellular T. cruzi replication, confirmation, NIH3T3 host cells, beta-gal luminescence (AID 2044); type: functional, cell-based;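 also: intracellular parasites grown in NIH/3T3 mouse fibroblasts as host cells; luminescent beta-galactosidase reporter signal from transgenic T. cruzi replicating inside host cells; inhibitors lower the luminescence signal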
[9] = cytotoxicity toward NIH3T3 fibroblasts, dose response, counter-screen, cell-based, ATP luminescence, mouse fibroblasts (AID 2010); type: functional;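 also: cells exposed to compound for about 90 hours before reading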

T1 sequence (P07237 whole entry): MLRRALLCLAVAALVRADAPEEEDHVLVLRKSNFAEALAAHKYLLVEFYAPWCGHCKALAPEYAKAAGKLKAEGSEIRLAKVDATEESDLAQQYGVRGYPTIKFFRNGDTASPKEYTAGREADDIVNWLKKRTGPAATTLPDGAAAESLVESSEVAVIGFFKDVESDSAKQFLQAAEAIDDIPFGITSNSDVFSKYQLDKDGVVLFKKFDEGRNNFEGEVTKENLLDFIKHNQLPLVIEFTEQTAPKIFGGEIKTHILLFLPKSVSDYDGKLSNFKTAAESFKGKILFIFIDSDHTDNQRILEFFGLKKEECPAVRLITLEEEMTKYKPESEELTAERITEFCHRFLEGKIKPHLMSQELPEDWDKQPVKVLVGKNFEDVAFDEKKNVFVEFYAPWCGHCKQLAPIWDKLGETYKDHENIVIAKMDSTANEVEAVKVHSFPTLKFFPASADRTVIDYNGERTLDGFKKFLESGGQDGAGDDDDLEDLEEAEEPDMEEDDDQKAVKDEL
Lethal factor, sequence (P15917 whole entry): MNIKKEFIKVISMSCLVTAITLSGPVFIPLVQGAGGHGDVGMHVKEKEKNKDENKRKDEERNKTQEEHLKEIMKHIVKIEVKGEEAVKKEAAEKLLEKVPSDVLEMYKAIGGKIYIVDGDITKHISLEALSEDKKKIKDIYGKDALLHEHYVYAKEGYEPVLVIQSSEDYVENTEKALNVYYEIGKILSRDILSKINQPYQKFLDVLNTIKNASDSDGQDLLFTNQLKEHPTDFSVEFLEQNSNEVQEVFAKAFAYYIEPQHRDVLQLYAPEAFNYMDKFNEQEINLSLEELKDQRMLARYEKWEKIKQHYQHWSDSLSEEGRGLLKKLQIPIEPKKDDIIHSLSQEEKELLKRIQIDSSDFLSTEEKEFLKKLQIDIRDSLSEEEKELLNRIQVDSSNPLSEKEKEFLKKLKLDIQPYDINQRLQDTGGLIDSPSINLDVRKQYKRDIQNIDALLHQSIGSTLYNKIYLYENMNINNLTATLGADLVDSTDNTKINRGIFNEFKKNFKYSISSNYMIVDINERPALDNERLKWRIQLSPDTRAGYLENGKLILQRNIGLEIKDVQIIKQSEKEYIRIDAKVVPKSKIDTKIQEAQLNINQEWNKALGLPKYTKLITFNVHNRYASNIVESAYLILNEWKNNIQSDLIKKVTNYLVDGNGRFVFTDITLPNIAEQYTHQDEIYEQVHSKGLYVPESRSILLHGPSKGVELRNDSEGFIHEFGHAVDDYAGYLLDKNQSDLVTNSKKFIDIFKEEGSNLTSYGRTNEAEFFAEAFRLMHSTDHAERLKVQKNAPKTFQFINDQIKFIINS
Botulinum neurotoxin type F, sequence (P30996 1-436 limits assumed): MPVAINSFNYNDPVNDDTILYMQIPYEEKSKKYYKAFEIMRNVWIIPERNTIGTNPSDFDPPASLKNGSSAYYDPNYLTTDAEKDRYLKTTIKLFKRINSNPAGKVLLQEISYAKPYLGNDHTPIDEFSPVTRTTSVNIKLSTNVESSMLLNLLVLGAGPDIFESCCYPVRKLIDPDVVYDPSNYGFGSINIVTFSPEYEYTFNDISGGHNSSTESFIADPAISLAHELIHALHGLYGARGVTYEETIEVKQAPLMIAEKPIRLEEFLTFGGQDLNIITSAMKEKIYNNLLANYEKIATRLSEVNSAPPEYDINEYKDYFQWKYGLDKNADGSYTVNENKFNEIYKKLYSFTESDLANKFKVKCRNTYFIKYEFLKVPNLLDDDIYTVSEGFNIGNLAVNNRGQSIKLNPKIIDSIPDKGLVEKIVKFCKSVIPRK
Melanin-concentrating hormone receptor 1, sequence (Q99705 whole entry): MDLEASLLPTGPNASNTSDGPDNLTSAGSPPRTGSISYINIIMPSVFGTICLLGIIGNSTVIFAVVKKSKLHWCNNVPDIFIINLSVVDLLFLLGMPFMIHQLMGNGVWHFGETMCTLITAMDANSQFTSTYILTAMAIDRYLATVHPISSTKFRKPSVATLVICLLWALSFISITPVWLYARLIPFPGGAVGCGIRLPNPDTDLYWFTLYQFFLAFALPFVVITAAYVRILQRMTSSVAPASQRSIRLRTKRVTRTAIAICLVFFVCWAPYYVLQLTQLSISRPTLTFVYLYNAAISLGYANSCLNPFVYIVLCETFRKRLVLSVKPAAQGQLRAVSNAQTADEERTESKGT
Botulinum neurotoxin type A, sequence (P0DPI1 2-448 limits assumed): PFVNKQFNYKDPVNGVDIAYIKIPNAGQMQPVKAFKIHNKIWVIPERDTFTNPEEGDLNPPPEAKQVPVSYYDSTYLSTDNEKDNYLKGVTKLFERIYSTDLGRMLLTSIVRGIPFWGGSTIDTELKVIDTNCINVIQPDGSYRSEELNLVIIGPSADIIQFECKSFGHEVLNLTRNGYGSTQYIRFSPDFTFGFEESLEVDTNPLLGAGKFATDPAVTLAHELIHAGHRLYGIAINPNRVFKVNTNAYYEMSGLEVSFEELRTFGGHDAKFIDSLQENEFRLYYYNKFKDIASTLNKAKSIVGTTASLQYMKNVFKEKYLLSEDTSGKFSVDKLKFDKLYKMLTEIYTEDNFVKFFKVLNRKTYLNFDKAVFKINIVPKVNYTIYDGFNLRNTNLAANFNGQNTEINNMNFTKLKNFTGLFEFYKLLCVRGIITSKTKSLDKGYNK
Neuropeptides B/W receptor type 1, sequence (P48145 whole entry): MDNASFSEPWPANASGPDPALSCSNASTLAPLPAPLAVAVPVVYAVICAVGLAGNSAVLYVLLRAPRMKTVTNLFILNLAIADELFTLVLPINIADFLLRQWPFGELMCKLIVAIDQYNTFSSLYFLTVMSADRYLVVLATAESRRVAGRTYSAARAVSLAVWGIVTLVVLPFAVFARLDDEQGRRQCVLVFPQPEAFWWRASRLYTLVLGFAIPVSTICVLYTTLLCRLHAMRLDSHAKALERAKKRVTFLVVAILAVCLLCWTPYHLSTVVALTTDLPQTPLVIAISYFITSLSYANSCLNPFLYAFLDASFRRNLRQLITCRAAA

Q: Which IC50 [1] does the source give for `O=c1c(Oc2ccc3ccccc3c2)c(Cl)cnn1Cc1cccc2ccccc12` here?
A: > 20 µM (inactive)

Q: And the IC50 [2]?
A: > 20 µM (inactive)

Q: What does the source list for `O=C1NC(Cc2ccc(O)cc2)c2nc3ccccc3c(=O)n2-c2ncccc21` (centres undefined)?
A: AC50 [3]: < 0.009 µM (active); AC50 [4]: 0.009 µM (active)

Q: For `Cc1cc2ccccc2n1CCNC(=O)COc1ccccc1`, which EC50 [5] is on record?
A: > 20 µM (inactive)

Q: What about the EC50 [6] of the same molecule?
A: 1.4 µM (active)

Q: What about the EC50 [7] of the same molecule?
A: 4.9 µM (active)

Q: What about the EC50 [8] of the same molecule?
A: 1.16 µM (active)

Q: And the EC50 [9]?
A: > 30 µM (not active)
